According to US6051718A, “PDE IV inhibiting 2-cyanoiminoimidazole derivatives” (Janssen Pharmaceutica, N.V., priority 1996, dated 2000):

Target: T1, recombinant human MNL phosphodiesterase PDE IV B (Homo sapiens, UniProt Q07343)
T1 construct: made in house
Assay: Inhibition of recombinant human mononuclear lymphocyte (MNL) phosphodiesterase type IV B produced in insect cells with a baculovirus vector
Type: biochemical
Conditions: 3H-cAMP 0.8 μM, 10 minutes, 37° C., pH 8, DMSO 1%
Experimental: Example C.1: Inhibition of Recombinant Human Mononuclear Lymphocyte (MNL) Phosphodiesterase Type IV B Produced in Insect Cells with a Baculovirus Vector
The alleviating and/or curing effect of the instant compounds on allergic and atopic diseases was assessed by an in vitro assay system to detect an inhibiting effect on the recombinant human MNL phosphodiesterase type IV B.
Seventy-two hours after infection with recombinant baculovirus, the insect cells were harvested and pelleted at 500 g for 5 minutes. The cells were lysed in 10 ml lysis-buffer consisting of 20 mM Tris, 10 mM EGTA, 2 mM Na2 EDTA, 1% Triton-X-100, 1 mM Na3 VO4, 10 mM NaF, 2 μg/ml of leupeptine, pepstatine and aprotinine, 0.3 μg/ml benzamidine and 100 μg/ml TPCK pH 7.5. After 5 minutes on ice, solubilized cells were centrifuged at 4000 rpm for 15 minutes at 4° C. The resulting supernatant was filtered through a 0.45 μm filter (Millipore) and brought to TBS buffer (50 mM Tris, 150 mM NaCl pH 7.4).
After washing the column with equilibration buffer, PDE IV was eluted in 1.5 ml fractions containing 37.5 μl 1M Tris pH 8. The fractions were dialyzed overnight against 20 mM Tris, 2 mM Na2 EDTA and 400 mM NaCl pH 7.5 and tested for PDE IV activity. Indentification was done on SDS PAGE and Western Blot (anti-FLAG-M2). Active fractions were pooled, brought to 10% glycerol and stored at -70° C.
The incubation mixture (pH 8) (200 μl) contained 20 mM Tris, 10 mM magnesium sulphate, 0.8 μM ^3 H-cAMP (310 mCi/mmole) and the phosphodiesterase type IV, the amount depending on the enzymatic activity. […] When the effect of different compounds on phosphodiesterase activity was tested, the medium without cAMP was incubated with the compound(s) or its carrier (DMSO-1% final concentration) for 5 minutes. […] After cooling to room temperature, alkaline phosphatase (0.25 μg/ml) was added and the mixture was incubated at 37° C. for 20 min. 100 μl of the mixture was subsequently applied to a GF-B filter-microtiter-plate (Millipore) filled with 300 μl DEAE-Sephadex-A25 suspension. The plate was washed 3 times with 75 μl 20 mM Tris pH 7.5 and the filtrates were collected for counting in the Packard Top Count scintillation counter.
The inhibiting effect of the present compounds on recombinant human MNL phosphodiesterase PDE IV B was measured at different concentrations of the instant compounds.

T1 sequence (Q07343 whole entry): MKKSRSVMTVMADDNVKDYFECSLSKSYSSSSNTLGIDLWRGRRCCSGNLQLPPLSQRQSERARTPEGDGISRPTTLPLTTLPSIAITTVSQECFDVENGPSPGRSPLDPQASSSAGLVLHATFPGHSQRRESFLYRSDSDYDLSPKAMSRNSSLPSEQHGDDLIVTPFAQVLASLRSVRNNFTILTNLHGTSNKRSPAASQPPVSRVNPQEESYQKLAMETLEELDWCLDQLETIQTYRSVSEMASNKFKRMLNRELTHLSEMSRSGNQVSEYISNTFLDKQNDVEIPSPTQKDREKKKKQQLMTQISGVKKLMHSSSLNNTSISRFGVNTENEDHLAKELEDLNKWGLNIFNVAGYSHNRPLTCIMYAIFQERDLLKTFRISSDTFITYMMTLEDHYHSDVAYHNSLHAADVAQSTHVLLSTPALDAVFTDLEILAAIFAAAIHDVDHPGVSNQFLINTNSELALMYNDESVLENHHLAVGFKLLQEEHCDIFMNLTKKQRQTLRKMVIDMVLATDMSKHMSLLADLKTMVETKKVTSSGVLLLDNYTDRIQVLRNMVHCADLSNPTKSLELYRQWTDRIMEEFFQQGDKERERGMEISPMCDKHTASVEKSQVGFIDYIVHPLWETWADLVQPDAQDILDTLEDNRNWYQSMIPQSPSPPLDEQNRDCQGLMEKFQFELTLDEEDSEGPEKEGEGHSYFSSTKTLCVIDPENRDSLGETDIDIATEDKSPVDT

SMILES	IC50 [µM]
COc1ccc(C(C)Cn2ccnc2NC#N)cc1OCC1CC1 (single isomer, unassigned) [Compound 15]	0.0335
COc1ccc(C(C)Cn2ccnc2NC#N)cc1OCCCCCc1ccccc1 (single isomer, unassigned) [Compound 19]	0.0375
COc1ccc(C(C)Cn2cc[nH]c2=NC#N)cc1OCCCCCc1ccccc1 (centres unmarked) [Compound 9]	0.0361
COc1ccc(C(C)Cn2ccnc2NC#N)cc1OC1CCCC1 (single isomer, unassigned) [Compound 12]	0.0219
CC(Cn1ccnc1NC#N)c1ccc(OC(F)F)c(OCCCCCc2ccccc2)c1 (centres unmarked) [Compound 11]	0.0327
COc1ccc(C(C)Cn2ccnc2NC#N)cc1OCCCCCc1ccccc1 (single isomer, unassigned) [Compound 18]	0.0409
COc1ccc(C(C)Cn2ccnc2NC#N)cc1OCC1CC1 (single isomer, unassigned) [Compound 14]	0.0272
COc1ccc(C(C)CN2CCNC2=NC#N)cc1OC1CCCC1 (racemic) [Compound 1, (±)-[1-[2-[3-(cyclopentyloxy)-4-methoxyphenyl]propyl]-2-imidazolidinylidene] cyanamide]	0.33
COc1ccc(C(C)Cn2ccnc2NC#N)cc1OC1CCCC1 (single isomer, unassigned) [Compound 13]	0.0222

More lines, now with the values ahead:

IC50 [µM]	SMILES
0.196	COc1ccc(C(C)Cn2cc[nH]c2=NC#N)cc1OC1CCOC1 (centres unmarked) [Compound 10]
0.03	COc1ccc(C(C)Cn2cc[nH]c2=NC#N)cc1OC1CCCC1 (centres unmarked) [Compound 3]
0.1	CC(Cn1cc[nH]c1=NC#N)c1ccc(OC(F)F)c(OC2CCOC2)c1 (racemic) [Compound 2, (±)-[1-[2-[4-(difluoromethoxy)-3-[(tetrahydro-3-furanyl)oxy]phenyl]-propyl]-1,3-dihydro-2H-imidazol-2-ylidene]cyanamide]
0.0565	COc1ccc(C(C)Cn2cc[nH]c2=NC#N)cc1OCC1CC1 (centres unmarked) [Compound 8]
0.0765	COc1ccc(CCn2cc[nH]c2=NC#N)cc1OC1Cc2ccccc2C1 [Compound 20]
0.0153	CC(Cn1cc[nH]c1=NC#N)c1ccc(OC(F)F)c(OC2CCCC2)c1 (centres unmarked) [Compound 4]
0.0266	N#CN=c1[nH]ccn1CCc1ccc(OC(F)F)c(OC2CCCC2)c1 [Compound 5]
0.0224	CC(Cn1cc[nH]c1=NC#N)c1ccc(OC(F)F)c(OCC2CC2)c1 (centres unmarked) [Compound 6]
